Legend:
[1] = molecular target: Adenosine receptor A3 (Homo sapiens, UniProt P0DMS8); experiment: Binding affinity to human adenosine A3 receptor by radioligand displacement assay
[2] = molecular target: Muscarinic acetylcholine receptor M3 (Homo sapiens, UniProt P20309); experiment: Displacement of [3H]-4-DAMP from human muscarinic M3 receptor expressed in BHK-21 cells; type: cell-based
[3] = Ratio of brain to plasma AUC in C57/6J mouse at 20 mg/kg, sc; type: ADME, organism-based; design: dose 20 mg/kg, route subcutaneous
[4] = Binding affinity to human delta2 opioid receptor by radioligand displacement assay
[5] = molecular target: D(3) dopamine receptor (Homo sapiens, UniProt P35462); experiment: Binding affinity to human dopamine D3 receptor by radioligand displacement assay
D(3) dopamine receptor, sequence (P35462 whole entry): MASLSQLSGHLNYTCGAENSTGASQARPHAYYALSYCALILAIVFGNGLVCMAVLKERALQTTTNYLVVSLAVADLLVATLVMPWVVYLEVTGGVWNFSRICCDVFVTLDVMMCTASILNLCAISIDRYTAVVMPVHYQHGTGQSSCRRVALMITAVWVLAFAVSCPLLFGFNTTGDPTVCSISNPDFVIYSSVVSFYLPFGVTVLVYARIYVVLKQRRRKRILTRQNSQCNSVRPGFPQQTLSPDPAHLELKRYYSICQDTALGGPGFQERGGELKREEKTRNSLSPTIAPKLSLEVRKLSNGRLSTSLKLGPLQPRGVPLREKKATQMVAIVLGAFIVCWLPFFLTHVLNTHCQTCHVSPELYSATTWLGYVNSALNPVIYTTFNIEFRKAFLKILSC

[6] = Binding affinity to PDE3 by enzyme assay
[7] = molecular target: Sodium-dependent noradrenaline transporter (Homo sapiens, UniProt P23975); experiment: Binding affinity to human NE transporter by radioligand displacement assay
Sodium-dependent noradrenaline transporter, sequence (P23975 whole entry): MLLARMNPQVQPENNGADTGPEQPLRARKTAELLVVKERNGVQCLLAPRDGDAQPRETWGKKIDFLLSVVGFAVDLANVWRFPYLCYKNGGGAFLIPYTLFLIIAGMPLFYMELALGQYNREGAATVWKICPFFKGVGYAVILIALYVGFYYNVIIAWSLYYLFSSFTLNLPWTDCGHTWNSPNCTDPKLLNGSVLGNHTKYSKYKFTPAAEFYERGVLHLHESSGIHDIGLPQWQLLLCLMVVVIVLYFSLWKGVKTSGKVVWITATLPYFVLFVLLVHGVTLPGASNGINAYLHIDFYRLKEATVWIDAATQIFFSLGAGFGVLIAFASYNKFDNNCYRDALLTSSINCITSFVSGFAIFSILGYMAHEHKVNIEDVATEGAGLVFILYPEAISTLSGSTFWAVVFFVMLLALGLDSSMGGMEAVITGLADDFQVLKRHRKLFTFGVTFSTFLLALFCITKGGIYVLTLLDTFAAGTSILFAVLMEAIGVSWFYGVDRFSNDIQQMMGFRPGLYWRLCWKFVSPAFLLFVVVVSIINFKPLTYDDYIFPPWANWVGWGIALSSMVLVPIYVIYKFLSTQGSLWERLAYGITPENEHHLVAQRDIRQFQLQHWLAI

[8] = molecular target: T1, Muscarinic acetylcholine receptor M2 (Homo sapiens) (UniProt P08172); experiment: Agonist activity at human muscarinic M2 receptor expressed in CHO-K1 cells coexpressing Galpha16 subunit assessed as increase of acetylcholine-induced calcium flux at 10 uM by FLIPR assay relative to acetylcholine; type: functional, cell-based
T1 sequence (whole entry): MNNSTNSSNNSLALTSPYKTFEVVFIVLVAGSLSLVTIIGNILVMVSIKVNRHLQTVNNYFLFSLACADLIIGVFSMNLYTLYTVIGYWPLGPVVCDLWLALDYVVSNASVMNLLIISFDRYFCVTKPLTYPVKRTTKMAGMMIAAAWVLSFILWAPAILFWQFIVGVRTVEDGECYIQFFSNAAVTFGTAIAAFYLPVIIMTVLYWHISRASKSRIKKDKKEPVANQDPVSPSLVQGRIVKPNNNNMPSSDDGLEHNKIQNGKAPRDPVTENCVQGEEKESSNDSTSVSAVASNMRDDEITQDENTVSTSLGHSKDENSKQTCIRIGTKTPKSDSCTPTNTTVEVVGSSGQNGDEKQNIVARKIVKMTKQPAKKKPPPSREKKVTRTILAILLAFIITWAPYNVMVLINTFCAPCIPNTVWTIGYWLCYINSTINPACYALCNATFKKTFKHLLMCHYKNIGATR

[9] = Binding affinity to central benzodiazepine receptor by radioligand displacement assay
[10] = molecular target: 5-hydroxytryptamine receptor 2A (Homo sapiens, UniProt P28223); experiment: Binding affinity to human 5-HT2A agonist site receptor by radioligand displacement assay
5-hydroxytryptamine receptor 2A, sequence (P28223 whole entry): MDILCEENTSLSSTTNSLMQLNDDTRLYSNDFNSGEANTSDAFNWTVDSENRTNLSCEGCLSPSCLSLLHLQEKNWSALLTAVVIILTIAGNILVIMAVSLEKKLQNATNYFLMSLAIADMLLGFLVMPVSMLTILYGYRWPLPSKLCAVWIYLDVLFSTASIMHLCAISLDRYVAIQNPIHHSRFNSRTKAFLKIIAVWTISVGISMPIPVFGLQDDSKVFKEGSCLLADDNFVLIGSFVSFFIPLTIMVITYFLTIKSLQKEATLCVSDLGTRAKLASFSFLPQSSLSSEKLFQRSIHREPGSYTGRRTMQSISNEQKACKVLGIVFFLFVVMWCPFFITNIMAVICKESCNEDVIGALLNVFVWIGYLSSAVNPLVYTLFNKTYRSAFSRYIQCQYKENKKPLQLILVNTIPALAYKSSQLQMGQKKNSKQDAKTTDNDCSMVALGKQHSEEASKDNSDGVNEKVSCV

[11] = Oral bioavailability in rat plasma at 2 mg/kg; type: ADME, organism-based
[12] = molecular target: T2, Muscarinic acetylcholine receptor M1 (Homo sapiens, UniProt P11229)
T2 sequence (P11229 whole entry): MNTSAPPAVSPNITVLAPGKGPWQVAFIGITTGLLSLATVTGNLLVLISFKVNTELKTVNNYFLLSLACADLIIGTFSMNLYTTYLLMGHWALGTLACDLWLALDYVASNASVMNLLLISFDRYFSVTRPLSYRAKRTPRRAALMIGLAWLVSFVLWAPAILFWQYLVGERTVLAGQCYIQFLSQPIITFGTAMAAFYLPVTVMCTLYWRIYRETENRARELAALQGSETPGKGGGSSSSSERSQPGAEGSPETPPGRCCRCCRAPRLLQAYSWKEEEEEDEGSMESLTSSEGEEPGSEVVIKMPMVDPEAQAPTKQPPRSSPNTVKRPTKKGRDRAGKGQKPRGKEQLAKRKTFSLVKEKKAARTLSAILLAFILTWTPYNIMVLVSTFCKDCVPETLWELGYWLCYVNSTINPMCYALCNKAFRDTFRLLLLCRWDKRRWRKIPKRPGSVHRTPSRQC

[13] = Binding affinity to human Ca2+ channel diltiazem site by radioligand displacement assay
[14] = molecular target: 5-hydroxytryptamine receptor 2C (Homo sapiens, UniProt P28335); experiment: Binding affinity to human 5HT2C receptor agonist site by radioligand displacement assay
[15] = molecular target: Neuropeptide Y receptor type 1 (Homo sapiens, UniProt P25929); experiment: Binding affinity to human neuropeptide Y1 receptor by radioligand displacement assay
[16] = test system: Brain; experiment: Protein binding in C57/6J mouse brain homogenates at 20 mg/kg, sc by equilibrium dialysis; type: ADME, organism-based; design: dose 20 mg/kg, route subcutaneous; conditions: in vivo
[17] = molecular target: Alpha-1A adrenergic receptor (Homo sapiens, UniProt P35348); experiment: Binding affinity to human adrenergic alpha1A receptor by radioligand displacement assay
Alpha-1A adrenergic receptor, sequence (P35348 whole entry): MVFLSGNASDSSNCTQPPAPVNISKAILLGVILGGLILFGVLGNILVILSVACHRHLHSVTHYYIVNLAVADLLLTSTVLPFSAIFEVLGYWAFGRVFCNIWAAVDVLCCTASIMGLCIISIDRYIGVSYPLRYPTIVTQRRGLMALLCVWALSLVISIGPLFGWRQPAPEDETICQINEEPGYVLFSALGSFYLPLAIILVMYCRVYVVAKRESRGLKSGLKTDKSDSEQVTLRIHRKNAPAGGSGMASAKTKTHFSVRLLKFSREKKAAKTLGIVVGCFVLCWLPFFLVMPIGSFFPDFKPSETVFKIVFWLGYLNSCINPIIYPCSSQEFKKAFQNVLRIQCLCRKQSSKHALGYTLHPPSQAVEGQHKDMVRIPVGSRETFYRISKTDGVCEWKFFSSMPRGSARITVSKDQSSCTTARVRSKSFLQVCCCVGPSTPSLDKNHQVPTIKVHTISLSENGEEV

[18] = test system: Hepatocyte; experiment: Intrinsic clearance in rat hepatocytes at 1 uM after up to 60 mins by LC/MS-MS analysis; type: ADME, cell-based, Liver; conditions: 1 h
[19] = molecular target: Histamine H3 receptor (Homo sapiens, UniProt Q9Y5N1); experiment: Binding affinity to human histamine H3 receptor by radioligand displacement assay
Histamine H3 receptor, sequence (Q9Y5N1 whole entry): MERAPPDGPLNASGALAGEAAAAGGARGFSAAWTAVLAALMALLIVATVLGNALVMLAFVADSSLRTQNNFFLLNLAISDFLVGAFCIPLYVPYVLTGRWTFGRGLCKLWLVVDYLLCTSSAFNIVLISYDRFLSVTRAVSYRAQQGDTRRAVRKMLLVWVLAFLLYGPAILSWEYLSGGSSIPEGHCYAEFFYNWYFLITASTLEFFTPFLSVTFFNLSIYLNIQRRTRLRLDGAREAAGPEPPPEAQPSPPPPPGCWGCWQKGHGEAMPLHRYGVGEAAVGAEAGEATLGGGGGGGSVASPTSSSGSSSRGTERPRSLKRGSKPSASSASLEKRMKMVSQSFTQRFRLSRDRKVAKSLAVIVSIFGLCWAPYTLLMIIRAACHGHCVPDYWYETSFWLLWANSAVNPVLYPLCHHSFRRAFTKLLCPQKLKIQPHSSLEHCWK

[20] = molecular target: Melatonin receptor type 1A (Homo sapiens, UniProt P48039); experiment: Binding affinity to human MT1 receptor by radioligand displacement assay
Melatonin receptor type 1A, sequence (P48039 whole entry): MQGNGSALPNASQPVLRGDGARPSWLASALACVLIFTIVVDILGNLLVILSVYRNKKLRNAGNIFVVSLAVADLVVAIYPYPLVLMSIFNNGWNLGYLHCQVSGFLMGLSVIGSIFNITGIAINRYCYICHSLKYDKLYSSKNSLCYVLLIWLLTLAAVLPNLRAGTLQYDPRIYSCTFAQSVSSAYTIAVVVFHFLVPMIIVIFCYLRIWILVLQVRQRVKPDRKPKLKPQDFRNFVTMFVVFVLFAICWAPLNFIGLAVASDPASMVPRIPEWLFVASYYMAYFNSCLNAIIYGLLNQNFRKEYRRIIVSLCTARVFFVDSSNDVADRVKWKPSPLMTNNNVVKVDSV

[21] = test system: Hepatocyte; experiment: Intrinsic clearance in human hepatocytes at 1 uM after up to 120 mins by LC/MS-MS analysis; type: ADME, cell-based, Liver; conditions: 2 h
[22] = organism: Homo sapiens; experiment: Hepatic blood flow in human; type: ADME, organism-based, Liver
[23] = molecular target: Cannabinoid receptor 1 (Homo sapiens, UniProt P21554); experiment: Binding affinity to human CB1 receptor by radioligand displacement assay
Cannabinoid receptor 1, sequence (P21554 whole entry): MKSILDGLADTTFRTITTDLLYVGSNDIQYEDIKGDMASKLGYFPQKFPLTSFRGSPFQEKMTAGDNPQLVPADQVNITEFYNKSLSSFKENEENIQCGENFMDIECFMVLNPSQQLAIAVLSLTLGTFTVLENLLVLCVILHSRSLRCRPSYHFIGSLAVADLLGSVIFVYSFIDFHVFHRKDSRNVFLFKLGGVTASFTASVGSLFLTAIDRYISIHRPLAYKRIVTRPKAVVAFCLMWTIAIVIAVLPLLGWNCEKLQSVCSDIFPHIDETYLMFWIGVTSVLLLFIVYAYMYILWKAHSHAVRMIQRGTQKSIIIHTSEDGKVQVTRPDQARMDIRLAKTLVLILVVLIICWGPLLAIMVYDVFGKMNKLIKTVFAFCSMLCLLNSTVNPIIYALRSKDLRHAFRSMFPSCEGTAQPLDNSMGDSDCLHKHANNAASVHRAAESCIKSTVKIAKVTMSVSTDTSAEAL

[24] = molecular target: Amine oxidase [flavin-containing] A (Homo sapiens, UniProt P21397); experiment: Binding affinity to MAOA by radioligand displacement assay
Amine oxidase [flavin-containing] A, sequence (P21397 whole entry): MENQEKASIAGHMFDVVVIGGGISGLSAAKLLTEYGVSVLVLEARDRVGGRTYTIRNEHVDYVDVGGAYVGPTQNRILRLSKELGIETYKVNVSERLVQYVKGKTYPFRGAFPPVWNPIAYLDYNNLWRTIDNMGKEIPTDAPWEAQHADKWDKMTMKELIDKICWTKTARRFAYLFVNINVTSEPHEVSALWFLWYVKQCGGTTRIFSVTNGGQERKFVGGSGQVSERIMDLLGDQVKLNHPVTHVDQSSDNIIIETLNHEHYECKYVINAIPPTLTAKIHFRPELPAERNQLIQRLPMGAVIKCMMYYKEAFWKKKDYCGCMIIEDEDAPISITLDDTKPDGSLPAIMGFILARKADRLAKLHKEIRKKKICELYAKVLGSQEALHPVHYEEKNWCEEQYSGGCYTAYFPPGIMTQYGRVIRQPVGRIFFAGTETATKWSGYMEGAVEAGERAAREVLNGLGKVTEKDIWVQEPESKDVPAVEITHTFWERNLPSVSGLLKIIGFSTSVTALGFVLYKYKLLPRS

[25] = Binding affinity to sigma receptor by radioligand displacement assay
[26] = molecular target: Adenosine receptor A1 (Homo sapiens, UniProt P30542); experiment: Binding affinity to human adenosine A1 receptor by radioligand displacement assay
Adenosine receptor A1, sequence (P30542 whole entry): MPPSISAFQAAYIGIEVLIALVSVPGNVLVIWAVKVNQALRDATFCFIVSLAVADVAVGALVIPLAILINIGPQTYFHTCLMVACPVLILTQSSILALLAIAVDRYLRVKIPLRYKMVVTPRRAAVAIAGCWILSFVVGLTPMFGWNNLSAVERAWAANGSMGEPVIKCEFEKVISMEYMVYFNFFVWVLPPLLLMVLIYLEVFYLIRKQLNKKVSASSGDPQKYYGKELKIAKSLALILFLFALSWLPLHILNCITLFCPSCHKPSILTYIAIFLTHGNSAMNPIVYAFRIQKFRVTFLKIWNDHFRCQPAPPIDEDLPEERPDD

[27] = Binding affinity to NMDA receptor PCP binding site by radioligand displacement assay
[28] = Drug level in C57/6J mouse brain at 20 mg/kg, sc after 30 mins; type: ADME, organism-based; design: dose 20 mg/kg, route subcutaneous; conditions: read-out: Drug uptake

Muscarinic acetylcholine receptor M3, sequence (P20309 whole entry): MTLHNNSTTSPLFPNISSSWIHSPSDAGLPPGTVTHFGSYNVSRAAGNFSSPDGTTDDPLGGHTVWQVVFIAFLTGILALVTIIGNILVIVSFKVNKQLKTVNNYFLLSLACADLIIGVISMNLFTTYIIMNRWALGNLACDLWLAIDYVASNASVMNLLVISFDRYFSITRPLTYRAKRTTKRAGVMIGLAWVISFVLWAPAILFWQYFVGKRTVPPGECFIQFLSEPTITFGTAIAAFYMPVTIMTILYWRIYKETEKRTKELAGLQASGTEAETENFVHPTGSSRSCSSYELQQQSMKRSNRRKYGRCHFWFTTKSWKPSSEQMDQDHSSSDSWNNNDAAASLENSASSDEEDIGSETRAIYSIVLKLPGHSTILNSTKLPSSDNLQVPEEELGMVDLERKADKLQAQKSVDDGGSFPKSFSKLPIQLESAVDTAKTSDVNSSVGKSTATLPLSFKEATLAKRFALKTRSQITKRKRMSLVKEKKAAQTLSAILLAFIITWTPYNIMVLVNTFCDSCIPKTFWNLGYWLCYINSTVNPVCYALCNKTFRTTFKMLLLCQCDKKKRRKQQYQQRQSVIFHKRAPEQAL

Compound: O=C(Cc1ccccc1)NC1CCN(CCCN2C(=O)COc3ccccc32)CC1
- Ki [1]: ≥ 1000 nM
- Ki [2]: 7000 nM
- Kp [3]: 0.35
- Ki [4]: ≥ 1000 nM
- Ki [5]: ≥ 1000 nM
- Ki [6]: ≥ 1000 nM
- Ki [7]: ≥ 1000 nM
- Emax [8]: 0%
- Ki [9]: ≥ 1000 nM
- Ki [10]: ≥ 1000 nM
- bioavailability [11]: 4%
- EC50 [12]: 61 nM
- Ki [13]: ≥ 1000 nM
- Ki [14]: ≥ 1000 nM
- Ki [15]: ≥ 1000 nM
- Activity [16]: 70%
- Ki [17]: 260 nM
- CL [18]: 100 mL/min
- Ki [19]: ≥ 1000 nM
- Ki [20]: ≥ 1000 nM
- CL [21]: 3.4 L/min
- QH [22]: 1.4 L/min
- Ki [23]: ≥ 1000 nM
- Ki [24]: ≥ 1000 nM
- Ki [25]: ≥ 1000 nM
- Ki [26]: ≥ 1000 nM
- Ki [27]: ≥ 1000 nM
- concentration at 0.5 h [28]: 440 ng/g

Source: ChEMBL document CHEMBL1240489, “Discovery of N-{1-[3-(3-oxo-2,3-dihydrobenzo[1,4]oxazin-4-yl)propyl]piperidin-4-yl}-2-phenylacetamide (Lu AE51090): an allosteric muscarinic M1 receptor agonist with unprecedented selectivity and procognitive potential” (J Med Chem, 2010)
